{"source": "BindingDB's records for doi:10.3109/14756360902888184", "about": "(Dublin City University, 2010)", "biological_target": "T1, Secreted cathepsin L 1 (Fasciola hepatica, UniProt Q7JNQ9)", "T1 sequence (Q7JNQ9 whole entry)": "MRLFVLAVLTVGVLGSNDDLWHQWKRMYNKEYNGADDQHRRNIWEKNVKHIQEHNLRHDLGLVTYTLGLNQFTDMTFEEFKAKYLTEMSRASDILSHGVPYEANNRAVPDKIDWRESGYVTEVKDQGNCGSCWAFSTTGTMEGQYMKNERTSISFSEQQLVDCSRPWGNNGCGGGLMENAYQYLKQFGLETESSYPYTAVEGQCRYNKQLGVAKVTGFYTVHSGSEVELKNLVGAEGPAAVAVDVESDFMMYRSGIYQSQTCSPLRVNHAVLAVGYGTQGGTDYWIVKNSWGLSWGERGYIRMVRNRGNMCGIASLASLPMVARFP", "assay": "Cathepsin L Enzyme Assay", "procedure": "The protease was activated by the addition of dithiothreitol, ethylenediaminetetraacetic acid (EDTA), and sodium acetate followed by incubation at 37°C for 2 h. Proteinase activity was measured fluorometrically using Z-Phe-Arg-NHMec as substrate. The substrate was stored as a 1 mM stock solution in dimethyl sulfoxide (DMSO). Assays were carried out using a final concentration of 10 μM substrate in 0.1 M sodium acetate containing 0.1 M dithiothreitol and […]. The enzyme and inhibitor were incubated together for 15 min at 37°C, at which stage the substrate was added. The mixture was incubated at 37°C for 30 min. The reaction was stopped by the addition of 150 μL of a 10% acetic acid solution. The amount of 7-amino-4-methylcoumarin (-NHMec) released was measured using a PerkinElmer fluorescence spectrophotometer with excitation set at 370 nm and emission at 440 nm.", "note": "pIC50: −log10 of the molar value. Residues, ends and D or L forms follow the SMILES beside them. *: point of attachment. Bz = O=C(c1ccccc1)*"}
{"molecule": "CC(C)C[C@H](NC(=O)c1c(F)c(F)c(F)c(F)c1F)C(=O)NCC#N", "note": "[N-2,3,4,5,6-pentafluorobenzoyl-L-leucine-glycine nitrile (33)]", "values": [{"measurement": "pIC50", "result": 5.36}]}
{"molecule": "CC(C)C[C@H](NC(=O)c1cc(F)c(F)c(F)c1F)C(=O)NCC#N", "note": "[N-2,3,4,5-tetrafluorobenzoyl-L-leucine-glycine nitrile (32)]", "values": [{"measurement": "pIC50", "result": 5.47}]}
{"molecule": "CC(C)C[C@H](NC(=O)c1ccc(F)c(F)c1F)C(=O)NCC#N", "note": "[N-2,3,4-trifluorobenzoyl-L-leucine-glycine nitrile (29)]", "values": [{"measurement": "pIC50", "result": 5.39}]}
{"molecule": "CC(C)C[C@H](NC(=O)c1c(F)ccc(F)c1F)C(=O)NCC#N", "note": "[N-2,3,6-trifluorobenzoyl-L-leucine-glycine nitrile (28)]", "values": [{"measurement": "pIC50", "result": 5.22}]}
{"molecule": "CC(C)C[C@H](NC(=O)c1cc(F)c(F)cc1F)C(=O)NCC#N", "note": "[N-2,4,5-trifluorobenzoyl-L-leucine-glycine nitrile]", "values": [{"measurement": "pIC50", "result": 5.35}]}
{"molecule": "CC(C)C[C@H](NC(=O)c1ccc(F)cc1F)C(=O)NCC#N", "note": "[N-2,4-difluorobenzoyl-L-leucine-glycine nitrile (23)]", "values": [{"measurement": "pIC50", "result": 5.26}]}
{"molecule": "CC(C)C[C@H](NC(=O)c1cc(F)ccc1F)C(=O)NCC#N", "note": "[N-2,5-difluorobenzoyl-L-leucine-glycine nitrile (24)]", "values": [{"measurement": "pIC50", "result": 5.51}]}
{"molecule": "CC(C)C[C@H](NC(=O)c1c(F)cccc1F)C(=O)NCC#N", "note": "[N-2,6-difluorobenzoyl-L-leucine-glycine nitrile (25)]", "values": [{"measurement": "pIC50", "result": 5.43}]}
{"molecule": "C[C@H](NC(=O)c1ccccc1F)C(=O)NCC#N", "note": "[N-2-fluorobenzoyl-L-alanine-glycine nitrile (15)]", "values": [{"measurement": "pIC50", "result": 4.06}]}
{"molecule": "C[C@H](NC(=O)c1ccccc1F)C(=O)NCCC#N", "note": "[N-2-fluorobenzoyl-L-alanine-β-alanine nitrile (19)]", "values": [{"measurement": "pIC50", "result": "< 4.00"}]}
{"molecule": "CC(C)C[C@H](NC(=O)c1ccccc1C(F)(F)F)C(=O)NCC#N", "note": "[N-2-trifluoromethylbenzoyl-L-leucine-glycine nitrile (34)]", "values": [{"measurement": "pIC50", "result": 5.39}]}
{"molecule": "CC(C)C[C@H](NC(=O)c1cc(F)c(F)c(F)c1)C(=O)NCC#N", "note": "[N-3,4,5-trifluorobenzoyl-L-leucine-glycine nitrile]", "values": [{"measurement": "pIC50", "result": 5.47}]}
{"molecule": "CC(C)C[C@H](NC(=O)c1ccc(F)c(F)c1)C(=O)NCC#N", "note": "[N-3,4-difluorobenzoyl-L-leucine-glycine nitrile (26)]", "values": [{"measurement": "pIC50", "result": 5.51}]}
{"molecule": "CC(C)C[C@H](NC(=O)c1cc(F)cc(F)c1)C(=O)NCC#N", "note": "[N-3,5-difluorobenzoyl-L-leucine-glycine nitrile (27)]", "values": [{"measurement": "pIC50", "result": 5.52}]}
{"molecule": "CC(C)C[C@H](NC(=O)c1cccc(C(F)(F)F)c1)C(=O)NCC#N", "note": "[N-3-trifluoromethylbenzoyl-L-leucine-glycine nitrile (35)]", "values": [{"measurement": "pIC50", "result": 5.04}]}
{"molecule": "CC(C)C[C@H](NC(=O)c1ccc(C(F)(F)F)cc1)C(=O)NCC#N", "note": "[N-4-trifluoromethylbenzoyl-L-leucine-glycine nitrile (36)]", "values": [{"measurement": "pIC50", "result": 5.49}]}
{"molecule": "CC(C)C[C@H](NC(=O)c1ccccc1)C(=O)NCC(=O)O", "note": "[N-benzoyl-L-leucine-glycine (37)] (Bz-Leu-Gly-OH)", "values": [{"measurement": "pIC50", "result": 5.00}]}
{"molecule": "C[C@H](NC(=O)c1c(F)c(F)c(F)c(F)c1F)C(=O)NCC#N", "note": "[N-pentafluorobenzoyl-L-alanine-glycine nitrile (16)]", "values": [{"measurement": "pIC50", "result": 4.17}]}
{"molecule": "C[C@H](NC(=O)c1c(F)c(F)c(F)c(F)c1F)C(=O)NCCC#N", "note": "[N-pentafluorobenzoyl-L-alanine-β-alanine nitrile (20)]", "values": [{"measurement": "pIC50", "result": "< 4.00"}]}
